Laboratory results reported in ChEMBL document CHEMBL1148967, “Correction of the structure of a new sesquiterpene from Cistus creticus ssp. creticus” (J Nat Prod, 2004).
Activity calls are given as the source filed them. No cut-off for these calls is given here.

Columns and labels:
PBMC = assay: Cytotoxicity against human PBMC assessed as reduction in growth rate at 100 uM after 48 hrs; assay type: cell-based
MCF7 = assay: Cytotoxicity against human MCF7 cells assessed as reduction in growth rate at 100 uM after 48 hrs; assay type: functional; parameters: scale not given: the % may be the effect or the level left
NCI-H460 = assay: Cytotoxicity against human H460 cells assessed as reduction in growth rate at 100 uM after 48 hrs; assay type: functional; parameters: scale not given: the % may be the effect or the level left
SF-268 = assay: Cytotoxicity against human SF268 cells assessed as reduction in growth rate at 100 uM after 48 hrs; assay type: functional, cell-based

## C=C(C)[C@H]1CC=C2CCC[C@@H](C)[C@]2(C)C1
PBMC
  Activity: Non-toxic
MCF7
  Activity: 93.6%
NCI-H460
  Activity: 80.8%
SF-268
  Activity: inactive
